Here are results for two compounds from ChEMBL document CHEMBL4339215, “Inhibition of PCSK9D374Y/LDLR Protein-Protein Interaction by Computationally Designed T9 Lupin Peptide” (ACS Med Chem Lett, 2019).

Calls of active or inactive are those of the source. No cut-off for these calls is given here.

The IC50 is the concentration that inhibits the measured activity by half. One may read the inhibition as the drop in the measured response relative to a control, in per cent.

Assay [1] concerns PCSK9/LDLR (Homo sapiens), Q8NBP7+P01130 [D374Y]. The experiment in a line: Inhibition of C-terminal His tagged purified recombinant PCSK9 D374Y mutant (unknown origin) and LDLR protein-protein interaction expressed in human HepG2 cells assessed as LDLR protein expression level at cell surface at 10 uM incubated for 2 hrs by in-cell western analysis (reference value: 39.6 +/- 0.7%). It counts as cell-based. On the set-up: scale not given: the % may be the effect or the level left.

The test system is the same in assay [2]. The experiment in a line: Potency index, ratio of T9 to test compound for inhibition of C-terminal His tagged purified recombinant PCSK9 D374Y mutant (unknown origin) and LDLR protein-protein interaction expressed in human HepG2 cells assessed as LDL-C uptake level at 10 uM incubated for 2 hrs by fluorescent LDL uptake cell-based assay.
A further assay addresses PCSK9/LDLR (Homo sapiens, UniProt Q8NBP7, D374Y). The experiment in a line: (§1) Binding affinity to C-terminal His tagged purified recombinant PCSK9 D374Y mutant (unknown origin) expressed in HEK293 cells assessed as dose dependent reduction in PCSK9/LDLR protein-protein interaction at 0.1 uM to 1 mM uM by chemiluminescent assay.
Assay [3] deals with PCSK9/LDLR (Homo sapiens), Q8NBP7+P01130 [D374Y]. The assay is described as §1.
The test system is the same in assay [4]. The experiment in a line: Inhibition of C-terminal His tagged purified recombinant PCSK9 D374Y mutant (unknown origin) and LDLR protein-protein interaction expressed in human HepG2 cells assessed as LDLR protein expression level at cell surface at 10 uM incubated for 2 hrs by in-cell western analysis relative to T9 peptide. It counts as cell-based. Also noted: scale not given: the % may be the effect or the level left.

For assay [5] the test system is unchanged. The experiment in a line: Inhibition of C-terminal His tagged purified recombinant PCSK9 D374Y mutant (unknown origin) and LDLR protein-protein interaction expressed in human HepG2 cells assessed as LDL-C uptake level at 10 uM incubated for 2 hrs by fluorescent LDL uptake cell-based assay (42.1 +/- 1.6%). On the set-up: scale not given: the % may be the effect or the level left.

For assay [6] the test system is unchanged. The experiment in a line: Binding affinity to C-terminal His tagged purified recombinant PCSK9 D374Y mutant (unknown origin) expressed in HEK293 cells assessed as reduction in PCSK9/LDLR protein-protein interaction at 100 uM by chemiluminescent assay.

Chain of PCSK9/LDLR (Q8NBP7 whole entry D374Y, looked up): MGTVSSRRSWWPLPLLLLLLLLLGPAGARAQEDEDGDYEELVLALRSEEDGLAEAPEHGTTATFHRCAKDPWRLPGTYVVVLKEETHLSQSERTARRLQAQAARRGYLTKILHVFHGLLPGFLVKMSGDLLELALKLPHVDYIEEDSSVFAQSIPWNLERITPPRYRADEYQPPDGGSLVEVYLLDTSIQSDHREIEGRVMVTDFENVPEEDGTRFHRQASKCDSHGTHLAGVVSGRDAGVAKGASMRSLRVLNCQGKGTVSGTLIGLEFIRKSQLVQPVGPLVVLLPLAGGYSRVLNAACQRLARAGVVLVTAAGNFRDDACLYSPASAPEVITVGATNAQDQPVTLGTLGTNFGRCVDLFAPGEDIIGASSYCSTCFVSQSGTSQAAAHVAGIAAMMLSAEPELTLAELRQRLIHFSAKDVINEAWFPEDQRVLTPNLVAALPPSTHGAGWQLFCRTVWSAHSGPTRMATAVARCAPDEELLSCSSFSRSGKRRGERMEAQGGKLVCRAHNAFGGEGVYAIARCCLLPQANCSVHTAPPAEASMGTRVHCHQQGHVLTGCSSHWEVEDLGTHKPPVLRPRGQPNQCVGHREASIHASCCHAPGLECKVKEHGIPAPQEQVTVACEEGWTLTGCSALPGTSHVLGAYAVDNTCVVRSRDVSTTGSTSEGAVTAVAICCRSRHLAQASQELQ

Consider H-GQRQWKQAEGVMVR-OH, for which the Activity in assay [1] worked out at 83.8%; in assay [4], 12.7%; in assay [5] it was 102%. Besides, in assay [2], the Ratio turned out to be 35. Also, the IC50 on PCSK9/LDLR stood at 148 µM. For the same compound, the inhibition entry in assay [3] was “Dose-dependent effect”.

For `CC[C@H](C)[C@H](NC(=O)[C@@H](NC(=O)CNC(=O)[C@H](CCC(=O)O)NC(=O)[C@H](C)NC(=O)[C@H](CCC(N)=O)NC(=O)[C@H](Cc1cnc[nH]1)NC(=O)[C@H](CO)NC(=O)[C@H](CCC(N)=O)NC(=O)[C@H](CCC(=O)O)NC(=O)[C@H](CCC(N)=O)NC(=O)CN)C(C)C)C(=O)N[C@H](C(=O)N[C@@H](CCCNC(=N)N)C(=O)O)C(C)C`, the inhibition result in assay [3] was “inactive”. In addition, the inhibition in assay [6] is 31.3%.
